The numbers were not newly measured in patent US8785725B2, “Method for generating resistance against citrus diseases caused by insects, fungi, oomycetes, bacteria or nematodes” (Institute Valenciano de Investigaciones Agrarias, priority 2009, dated 2014), which cites them from elsewhere.

SMILES strings stand for the structures.

In the case of `C=C(C)C1CC=C(C)CC1` (stereo not drawn) [d-limonene, 1-methyl-4-(1-methylethenyl)cyclohexene], the miscibility with alcohol result (alcohol) was “miscible with alcohol”. The solubility in water entry (water) was “insoluble in water”.
